Assay results reported in US8853213B2, “Bicyclic compound for modulating G protein-coupled receptors” (Hanmi Pharm. Co., Ltd, priority 2011, dated 2014).

Target: T1, GPR119 (Homo sapiens, UniProt Q8TDV5)
T1 construct: host or cells: CHO-K1 (CRE-bla reporter, doxycycline-induced)
T1 sequence (Q8TDV5 1-335): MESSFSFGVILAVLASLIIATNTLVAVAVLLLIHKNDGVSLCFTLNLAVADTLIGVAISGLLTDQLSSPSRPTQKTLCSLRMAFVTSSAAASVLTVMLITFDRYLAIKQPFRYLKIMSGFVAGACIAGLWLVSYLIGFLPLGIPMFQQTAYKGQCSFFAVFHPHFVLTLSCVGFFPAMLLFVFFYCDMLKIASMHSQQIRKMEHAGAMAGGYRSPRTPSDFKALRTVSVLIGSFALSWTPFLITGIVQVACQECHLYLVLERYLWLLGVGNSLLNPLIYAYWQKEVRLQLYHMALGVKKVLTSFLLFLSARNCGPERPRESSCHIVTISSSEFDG
Assay: Controlling Effect of GPR119 in CRE-bla CHO-K1 Cells (EC50)
Format: cell-based
Details: GPR119 CRE-bla CHO-K1 cell line, 5 hr incubation with compound, β-lactamase LiveBLAzer-FRET B/G readout; read-out: controlling effect against GPR119 in CRE-bla CHO-K1 cell line (EC50)
Procedure, shortened: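 CHO-K1 cells carrying GPR119 and a CRE-β-lactamase reporter, induced with doxycycline for 16-20 h at 37° C, then exposed to compounds in 10-fold dilutions for 5 h. CCF4-AM FRET substrate added for 2 h at room temperature; blue/green fluorescence (409 ex, […]) read and EC50 derived.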

SMILES	EC50
CS(=O)(=O)c1ccc(-c2csc3c(OC4CCN(c5ncc(C6CC6)cn5)CC4)ncnc23)c(F)c1 [Example 84, 7-(2-fluoro-4-methanesulfonyl-phenyl)-4-[1-(5-cyclopropyl-pyrimidin-2-yl)-piperidin-4-yloxy]-thieno[3,2-d]pyrimidine]	< 0.1 µM
CS(=O)(=O)c1ccc(-c2csc3c(OC4CCN(c5ncccn5)CC4)ncnc23)c(F)c1 [Example 85, 7-(2-fluoro-4-methanesulfonyl-phenyl)-4-(1-pyrimidin-2-yl-piperidin-4-yloxy)-thieno[3,2-d]pyrimidine]	< 0.1 µM
CC(=O)N1CCC(Oc2ncnc3c(-c4ccc(S(C)(=O)=O)cc4F)csc23)CC1 [Example 87, 1-(4-(7-(2-fluoro-4-methanesulfonyl-phenyl)thieno[3,2-d]pyrimidin-4-yloxy)piperidin-1-yl)ethanone]	> 1 µM
CC(C)(C)C(=O)N1CCC(Oc2ncnc3c(-c4ccc(S(C)(=O)=O)cc4F)csc23)CC1 [Example 88, 1-(4-(7-(2-fluoro-4-methanesulfonyl-phenyl)thieno[3,2-d]pyrimidin-4-yloxy)piperidin-1-yl)-2,2-dimethylpropan-1-one]	< 0.1 µM
CS(=O)(=O)c1ccc(-c2csc3c(OC4CCN(C(=O)c5ccccc5)CC4)ncnc23)c(F)c1 [Example 89, {4-[7-(2-fluoro-4-methanesulfonyl-phenyl)-thieno[3,2-d]pyrimidin-4-yloxy]-piperidin-1-yl}phenyl-methanone]	< 0.1 µM
CS(=O)(=O)c1ccc(-c2csc3c(OC4CCN(C(=O)c5cccnc5)CC4)ncnc23)c(F)c1 [Example 90]	> 1 µM
CS(=O)(=O)c1ccc(-c2csc3c(OC4CCN(Cc5ccccc5)CC4)ncnc23)c(F)c1 [Example 91, 4-(1-benzylpiperidin-4-yloxy]-7-(2-fluoro-4-methanesulfonyl-phenyl)thieno[3,2-d]pyrimidine]	< 0.1 µM

Next, values leading:

EC50	SMILES
< 0.1 µM	CC(C)c1ccc(-c2cnc(N3CCC(Oc4ncnc5c(-c6ccc(S(C)(=O)=O)cc6F)csc45)CC3)nc2)cc1 [Example 86, 7-(2-fluoro-4-methanesulfonyl-phenyl)-4-{1-[5-(4-isopropylphenyl)-pyrimidin-2-yl)-piperidin-4-yloxy]-thieno[3,2-d]pyrimidine]
> 1 µM	CC(C)c1csc(N2CCC(Oc3ncnc4c(-c5ccc(S(C)(=O)=O)cc5F)csc34)CC2)n1 [Example 93, 7-(2-fluoro-4-methanesulfonyl-phenyl)-4-[1-(4-isopropyl-thiazo-2-yl)piperidin-4-yloxy]-thieno[3,2-d]pyrimidine]
< 0.1 µM	CC(C)n1nnc(N2CCC(Oc3ncnc4c(-c5ccc(S(C)(=O)=O)cc5F)csc34)CC2)n1 [Example 94, 7-(2-fluoro-4-methanesulfonyl-phenyl)-4-(1-(2-isopropyl-2H-tetrazol-5-yl)piperidin-4-yloxy)thieno[3,2-d]pyrimidine]
< 0.1 µM	CC(C)c1nc(N2CCC(Oc3ncnc4c(-c5ccc(S(C)(=O)=O)cc5F)csc34)CC2)no1 [Example 95, 7-(2-fluoro-4-methanesulfonyl-phenyl)-4[1-(5-isopropyl-[1,2,4]oxadiazol-3-yl)-piperidin-4-yloxy]-thieno[3,2d]pyrimidine]
< 0.1 µM	COc1ccc(-c2csc3c(OC4CCN(c5nc(C(C)C)no5)CC4)ncnc23)c(Cl)c1 [Example 96, 5-(4-(7-(2-chloro-4-methoxyphenyl)thieno[3,2-d]pyrimidin-4-yloxy)piperidin-1-yl)-3-isopropyl-1,2,4-oxadiazole]
> 1 µM	CC(C)c1noc(N2CCC(Oc3ncnc4c(-c5ccc(F)c(F)c5F)csc34)CC2)n1 [Example 97, 4-[1-(3-isopropyl-[1,2,4]oxadiazol-5-yl)-piperidin-4-yloxy]-7-(2,3,4-trifluoro-phenyl)-thieno[3,2-d]pyrimidine]
> 1 µM	COc1ccc(-c2csc3c(OC4CCN(c5nc(C(C)C)no5)CC4)ncnc23)cc1F [Example 98, 7-(3-fluoro-4-methoxy-phenyl)-4-[1-(3-isopropyl-[1,2,4]oxadiazol-5-yl)-piperidin-4-yloxy]-thieno[3,2-d]pyrimidine]
